Reference: patent EP3322687B1, “2-BENZYL-INDANONE COMPOUNDS AS ANTICANCER AGENT AND A PROCESS FOR PREPARATION THEREOF” (Council of Scientific and Industrial Research, priority 2015, dated 2017)
pIC50: −log10 of the molar value. “And” between values parts separate entries of the source, which are not always exact repeats. Identical values can stand only once.

Key:
tubulin protein = format: biochemical; conditions: tubulin 3mg/mL, 37° C, 340 nm, 1h; read-out: Tubulin polymerisation inhibition IC50
Experimental: The tubulin polymerization experiment was performed using 'assay kit'(Cytoskeleton USA) following manufacturer's protocol based on the procedure described by of Shelanski et al, (1973) and Lee et al. (1977). Briefly, tubulin protein (3mg/mL) in tubulin polymerization buffer (80 mM PIPES, pH 6.9, 2 mM MgCl2, 0.5 mM EGTA, 1 mM GTP and 15% glycerol) was placed in prewarmed 96-well microtiter plates at 37° C in the presence of test compounds with variable concentrations. All samples were mixed well and polymerization was monitored kinetically at 340 nm every min for 1h using a Spectramax plate reader. The IC50 value was determined from dose-dependent analysis and is defined as the concentration that inhibits the rate of polymerization by 50%. Podophyllotoxin was used as standard tubulin polymerisation inhibitor as positive control.

[1] = test system: various human cancer cell lines; assay: Cytotoxicity against various human cancer cell lines (summary statement); format: cell-based; conditions: read-out: cytotoxicity against various human cancer cell lines, IC50
Experimental: The benzyl compounds were evaluated by Sulforhodamine B Assay as per reported method [Skehan etal., J. Natl. Cancer Inst.1990, 82, 1107]. The human cancer cell lines procured from National Cancer Institute, Frederick, U. S. A. were used in present study. Cells were grown in tissue culture flasks in complete growth medium (RPMI-1640 medium with 2 mM glutamine, pH 7.4 supplemented with 10% fetal bovine serum, 100 µg/ml streptomycin and 100 units/ml penicillin) in a carbon dioxide incubator (37°C, 5% CO2, 90% RH). The cells at subconfluent stage were harvested from the flask by treatment with trypsin (0.05% in PBS (pH 7.4) containing 0.02% EDTA). Cells with viability of more than 98%, as determined by trypan blue exclusion, were used for determination of cytotoxicity. The cell suspension required concentration of cells was prepared in complete growth medium. Stock solution of 2x10^-2 M of compounds were prepared in DMSO and further dilution was carried out complete growth medium containing 50µg/ml of gentamycin to obtained working test solution of required concentration. In vitro cytotoxicity against various human cancer cell lines was determined using 96-well cell culture plates. […] Cell growth was measured by staining with sulforhodamine B dye. […] The optical density (OD) was recorded on ELISA reader at 540nm. […]

[2] = test system: Ehrlich Ascites Carcinoma (EAC); format: in vivo, Swiss mice
Experimental: Ehrlich ascites carcinoma (EAC) cells were collected from the peritoneal cavity of the Swiss mice harbouring 8-10 days old ascitic tumor. 1x10^7 EAC cells were injected intraperitoneally in Swiss mice selected for the experiment on day 0. The next day, animals were randomized and divided into different groups. The treatment groups contained 7 animals each and control group contained 10 animals. The treatment group was treated with 20 mg/kg of Compound 2 intra-peritoneally from day 1-9. One more of the treatment group received 5-fluorouracil (20 mg/kg, i.p) and it served as positive control. The tumor bearing control group was similarly administered normal saline (0.2 ml, i.p.). On day 12, animals were sacrificed and ascitic fluid was collected from peritoneal cavity of each mouse for the evaluation of tumor growth. Percent tumor growth inhibition was calculated based on the total number of tumor cells present in the peritoneal cavity as on day 12 of the experiment using the following formula. Percent tumor growth inhibition = (Av.no.of cells in control group−Av.no.of cells in treated group)/(Av.no.of cells in control group) × 100 [formula]

Ehrlich Tumor (solid) = format: in vivo, Swiss mice
Experimental: Ehrlich ascites carcinoma (EAC) cells were collected from the peritoneal cavity of the Swiss mice harbouring 8-10 days old ascitic tumor. 1x10^7 EAC cells were injected intramuscularly in right thigh of Swiss male mice selected for the experiment on day 0. The next day, animals were randomized and divided into different groups. Two treatment groups contained 7 animals each and one control group contained 10 animals. The first treatment group was given compound 2 (20 mg/kg i/p) from day 1-9. The second treatment group was treated with 5-fluorouracil (22 mg/kg, i.p) from day 1-9 and it served as positive control. The control group was similarly administered normal saline (0.2 ml, i.p.) from day 1-9. On day 9 & 13, tumor bearing thigh of each animal was shaved and longest and shortest diameters of the tumor were measured with the help of vernier caliper. Tumor weight of each animal was calculated using the following formula. Tumor weight (mg) = (Length(mm) × ([width(mm)])^2)/(2) [formula]
The percent tumor growth inhibition was calculated on day 13 by comparing the average values of treated groups with that of control group. Tumor growth in saline treated control animals was taken to be 100%. Table 6. In-vivo anticancer activity of 2 against Ehrlich ascites carcinoma (solid)

THP-1 (Leukemia) = assay: Sulforhodamine B cytotoxicity assay; format: cell-based; conditions: Homo sapiens, THP-1, 48 h, read-out: Human cancer cell lines IC50 THP-1 (Leukemia)
Experimental: (§1) The benzyl compounds were evaluated by Sulforhodamine B Assay as per reported method [Skehan etal., J. Natl. Cancer Inst.1990, 82, 1107]. The human cancer cell lines procured from National Cancer Institute, Frederick, U. S. A. were used in present study. Cells were grown in tissue culture flasks in complete growth medium (RPMI-1640 medium with 2 mM glutamine, pH 7.4 supplemented with 10% fetal bovine serum, 100 µg/ml streptomycin and 100 units/ml penicillin) in a carbon dioxide incubator (37°C, 5% CO2, 90% RH). The cells at subconfluent stage were harvested from the flask by treatment with trypsin (0.05% in PBS (pH 7.4) containing 0.02% EDTA). Cells with viability of more than 98%, as determined by trypan blue exclusion, were used for determination of cytotoxicity. The cell suspension required concentration of cells was prepared in complete growth medium. Stock solution of 2x10^-2 M of compounds were prepared in DMSO and further dilution was carried out complete growth medium containing 50µg/ml of gentamycin to obtained working test solution of required concentration. In vitro cytotoxicity against various human cancer cell lines was determined using 96-well cell culture plates. The 100µl of cell suspension was added to each well of the 96-well cell culture plates. The cells were allowed to grow in CO2 incubator (37°C, 5% CO2, 90% RH) for 24 hours. The test materials in complete growth medium (100 µl) were added after 24 hours incubation to the wells containing cell suspension. The plates were further incubated for 48 hours (37°C in an atmosphere of 5% CO2 and 90% relative humidity) in a carbon dioxide incubator after addition of test material and then the cell growth was stopped by gently layering trichloroacetic acid (50% TCA, 50 µl) on top of the medium in all the wells. The plates were incubated at 4°C for one hour to fix the cells attached to the bottom of the wells. The liquid of all the wells was gently pipetted out and discarded. The plates were washed five times with distilled water to remove TCA, growth medium low molecular weight metabolites, serum proteins etc. and air - dried. Cell growth was measured by staining with sulforhodamine B dye. The adsorbed dye was dissolved in Tris-HCl Buffer (100 µl/well, 0.01M, pH 10.4) and plates were gently stirred for 10 minutes on a mechanical stirrer. The optical density (OD) was recorded on ELISA reader at 540nm. Paclitaxel (Taxol), and 5-Fluorouracil were used as positive controls (Standard drugs).

A549 (Lung) = assay: Sulforhodamine B cytotoxicity assay; format: cell-based; conditions: Homo sapiens, A549, 48 h, read-out: Human cancer cell lines IC50 A549 (Lung)
Experimental: as §1

HCT-116 (Colon) = assay: Sulforhodamine B cytotoxicity assay; format: cell-based; conditions: Homo sapiens, HCT-116, 48 h, read-out: Human cancer cell lines IC50 HCT-116 (Colon)
Experimental: as §1

SMILES: COc1cc(C2c3c(cc(OC)c(OC)c3OC)C(=O)C2Cc2ccc3c(c2)OCO3)cc(OC)c1OC (stereo not shown) [Compound 2, 2-(3",4"-methylenedioxybenzyl)-3-(3',4',5'-trimethoxyphenyl)-4,5,6-trimethoxy-indan-1-one]
- pIC50 (tubulin protein): 5.68
- pIC50 [1]: 5.52 to 6.00
- %Tumor Growth Inhibition ([2]; 20 mg/kg i/p day 1-9, Day 12): 67.64%
- Av, Volume of ascitic fluid ([2]; 20 mg/kg i/p day 1-9, Day 12): 6.31 mL
- Av. No. of tumor cells ([2]; 20 mg/kg i/p day 1-9, Day 12): 44.78 x 10^7
- Av. Weight of ascitic fluid ([2]; 20 mg/kg i/p day 1-9, Day 12): 6.02 g
- % Tumor cell growth ([2]; 20 mg/kg i/p day 1-9, Day 12, control = 100): 32.36%
- Mortality ([2]; 20 mg/kg i/p day 1-9, Day 12, dead/total animals): 0/7
- Body weight Day 1 ([2]; 20 mg/kg i/p day 1-9, EAC-bearing female Swiss mice, Day 1): 21.0 g
- Body weight Day 5 ([2]; 20 mg/kg i/p day 1-9, EAC-bearing female Swiss mice, Day 5): 21.86 g
- Body weight Day 9 ([2]; 20 mg/kg i/p day 1-9, EAC-bearing female Swiss mice, Day 9): 22.28 g
- Body weight Day 12 ([2]; 20 mg/kg i/p day 1-9, EAC-bearing female Swiss mice, Day 12): 22.66 g
- better activity (in-vivo) over the parent compound 12 ([2]; Ehrlich ascites carcinoma, 20mg/kg dose, relative to compound 12): 48.72%
- Day 13 Av. Tumor weights (Ehrlich Tumor (solid); 20 mg/kg i/p day 1-9, Day 13): 1178.35 ± 32.72 mg
- %Tumor Growth Inhibition (Ehrlich Tumor (solid); 20 mg/kg i/p day 1-9, day 13): 42.77% and 42.771%
- Mortality (Ehrlich Tumor (solid); 20 mg/kg i/p day 1-9, dead/total animals): 0/7
- Day 13 Av. Body weights (Ehrlich Tumor (solid); 20 mg/kg i/p day 1-9, male Swiss mice, Day 13): 23.28 g
- Av. Body weights (g) of animals on days 1 (Ehrlich Tumor (solid); 20 mg/kg i/p day 1-9, male Swiss mice, day 1): 21.42 g
- better activity (in-vivo) over the parent compound 12 (Ehrlich Tumor (solid); solid tumour, 20mg/kg dose, relative to compound 12): 19.1%
- pIC50 (THP-1 (Leukemia)): 6.00
- pIC50 (A549 (Lung)): 5.70
- pIC50 (HCT-116 (Colon)): 5.52
